Results reported in patent US11780845B2 (Relay Therapeutics, Inc., priority 2019, dated 2023).

The compounds below were run against FGFR2 (Homo sapiens (Human), UniProt P21802) (assay: Biochemical FGFR2 Caliper assay). Conditions: not given.
FGFR2, sequence (P21802 22-821): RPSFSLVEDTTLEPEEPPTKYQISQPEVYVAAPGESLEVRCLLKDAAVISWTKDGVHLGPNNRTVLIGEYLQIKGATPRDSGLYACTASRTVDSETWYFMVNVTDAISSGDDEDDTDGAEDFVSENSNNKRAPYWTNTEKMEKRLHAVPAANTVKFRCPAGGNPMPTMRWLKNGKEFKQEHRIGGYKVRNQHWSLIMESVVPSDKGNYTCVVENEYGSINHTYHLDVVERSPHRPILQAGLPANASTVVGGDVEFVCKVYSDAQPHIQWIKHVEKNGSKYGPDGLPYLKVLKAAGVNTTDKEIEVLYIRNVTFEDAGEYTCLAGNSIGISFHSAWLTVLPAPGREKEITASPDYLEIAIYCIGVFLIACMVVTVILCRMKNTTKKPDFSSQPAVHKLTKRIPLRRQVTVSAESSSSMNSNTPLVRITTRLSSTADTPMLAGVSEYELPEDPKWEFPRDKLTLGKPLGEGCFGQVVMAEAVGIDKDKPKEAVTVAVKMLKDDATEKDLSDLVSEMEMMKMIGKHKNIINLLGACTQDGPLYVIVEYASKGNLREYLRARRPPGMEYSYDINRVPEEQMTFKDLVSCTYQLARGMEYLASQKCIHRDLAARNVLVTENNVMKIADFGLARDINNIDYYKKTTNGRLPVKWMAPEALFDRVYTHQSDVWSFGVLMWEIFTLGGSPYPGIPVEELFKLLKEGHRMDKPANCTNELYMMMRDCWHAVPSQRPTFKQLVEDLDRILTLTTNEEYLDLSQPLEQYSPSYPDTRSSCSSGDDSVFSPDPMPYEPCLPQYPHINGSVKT

| IC50 [nM] | Structure (SMILES) |
| --- | --- |
| 1000 to 100000 | C=C(C)C(=O)Nc1ccc(-c2c(-c3ccc4c(c3)COCC4)c3c(N)ncnc3n2C)cc1 [Example 1289] |
| < 100 | C#Cc1nc2ccc(-c3c(-c4ccc(Oc5nccc(C)n5)c(F)c4)c4c(N)ncnc4n3C)cc2n1C [Example 1395] |
| < 100 | C#Cc1ncc(-c2c(-c3ccc(Oc4nccc(C)n4)c(F)c3)c3c(N)ncnc3n2C)c(C)c1F [Example 1313] |
| 1000 to 100000 | C#Cc1cc(C)c(-c2c(C3=CC[C@@]4(CC3)Cc3ccc(C)nc3O4)c3c(C)ncnc3n2C)cn1 [Example 1392] |
| 250 to 1000 | C#Cc1cc(C)c(-c2c(C3=CC[C@@H](C(=O)N4CCC[C@H]4C#N)CC3)c3c(C)ncnc3n2C)c(C)n1 (atropisomer, axis not shown) [Example 1464] |
| < 100 | C#Cc1ncc(-c2c(C3=CC[C@H](C(=O)N4CCCC4)CC3)c3c(N)ncnc3n2C)c(C)c1F (single isomer, unassigned) [Example 1330] |
| < 100 | C#Cc1nc2cc(-c3c(C4=CC[C@@H](C(=O)N5CCC[C@H]5COC)CC4)c4c(N)ncnc4n3C)ccc2[nH]1 [Example 1320] |
| < 100 | C#Cc1ccc2cc(-c3c(-c4ccc(Oc5nccc(C)n5)c(F)c4)c4c(N)ncnc4n3C)cnc2n1 [Example 1429] |
| < 100 | C#Cc1ncc(-c2c(-c3ccc(Oc4nccc(C)n4)c(F)c3)c3c(N)ncnc3n2C)c(OC)c1F [Example 1336] |
| < 100 | C=C(C)C(=O)Nc1ccc(-c2c(-c3cnc(-c4ccc(OC)cc4)s3)c3c(N)ncnc3n2C)cc1 [Example 1419] |
| < 100 | C=C1CCc2cc(-c3c(-c4ccc(Oc5nccc(C)n5)cc4)c4c(N)ncnc4n3C)ccc2C1=O [Example 1311] |

More lines, now with the values behind:

| Structure (SMILES) | IC50 [nM] |
| --- | --- |
| Cc1ccnc(Oc2ccc(-c3c([C@@H]4CCN(C(=O)CCl)C4)n(C)c4ncnc(N)c34)cc2)n1 (single isomer, unassigned) [Example 875] | 250 to 1000 |
| C=C(C)C(=O)N1CC(c2c(-c3ccc(C(=O)N4CCCC4)cc3)c3c(N)ncnc3n2C)=C[C@@H]1C [Example 903] | 1000 to 100000 |
| COC(=O)Nc1ccc(-c2c(-c3ccc(C(=O)N4CCCC4)cc3)c3c(N)ncnc3n2C)cc1 [Example 902] | 1000 to 100000 |
| C=C(C)C(=O)Nc1ccc(-c2c(C3=CC[C@@H](C(=O)N4CCC[C@@H]4C4CC4)CC3)c3c(N)ncnc3n2C)cc1 [Example 1055] | < 100 |
| C=C(C)C(=O)Nc1ccc(-c2cn3ncnc(N)c3c2-c2ccc(S(=O)(=O)NC3CCC3)cc2)cc1 [Example 834] | 250 to 1000 |
| C=CC(=O)N1CCC(n2cc(-c3c(-c4ccc(C(=O)NC5CCOC5)cc4)c4c(N)ncnc4n3C)cn2)CC1 (centres unmarked) [Example 845] | 250 to 1000 |
| C=C(C)C(=O)Nc1ccc(-c2c(-c3ccc(C(=O)N4CCCC4)cc3)c3c(N)n[nH]c(=O)c3n2C)cc1 [Example 870] | 1000 to 100000 |
| C#Cc1cc(C)c(-c2c(-c3ccc(C(=O)N4CCC[C@H]4C#C)cc3)c3c(N)ncnc3n2C)cn1 [Example 1185] | < 100 |
| C#Cc1ncc(-c2c(C3=CC[C@@H](C(=O)N4CCCC4)CC3)c3c(N)ncnc3n2C)c(C)n1 [Example 1180] | < 100 |
| C=CC(=O)Nc1ccc(-c2c(-c3ccc(Oc4nccc(C)n4)cc3)c3c(N)ncnc3n2C)c(C)c1 [Example 1092] | < 100 |
| C#Cc1ncc(-c2c(-c3ccc(Oc4nccc(C)n4)cc3)c3c(N)ncnc3n2C)cc1F [Example 1081] | 250 to 1000 |
| C=C(C)C(=O)Nc1ccc(-c2c(C3=CC[C@@H](C(=O)NC4CCCC4)CC3)c3c(N)ncnc3n2C)cc1 (single isomer, unassigned) [Example 958] | 250 to 1000 |
| Cc1cccc(Oc2ccc(-c3c(-c4cccc(NC#N)c4)n(C)c4ncnc(N)c34)cc2)n1 [Example 1121] | < 100 |
| C#Cc1cc(C)c(-c2c(C3=CC[C@@H](C(=O)N4CCC[C@H]4COC)CC3)c3c(N)ncnc3n2C)cn1 (single isomer, unassigned) [Example 1212] | < 100 |
| C=C(C)C(=O)Nc1ccc(-c2c(C3=C(F)C[C@H](C(=O)N4CCCC4)CC3)c3c(N)ncnc3n2C)cc1 [Example 882] | 1000 to 100000 |
| C#Cc1ccc(-c2c(-c3ccc(Oc4nccc(C)n4)cc3)c3c(N)ncnc3n2C)cn1 [Example 1067] | < 100 |
| C=C(C)C(=O)Nc1ccc(-c2c(-c3ccc(C(=O)NCC4CCC4)c(OC)c3)c3c(N)ncnc3n2C)cc1 [Example 1046] | 1000 to 100000 |

These compounds were tested on SNU-16 (assay: Cell SNU-16 assay). Conditions: Homo sapiens, SNU-16, SNU-16 cells.
Type: cell-based

| IC50 [nM] | Structure (SMILES) |
| --- | --- |
| 1000 to 100000 | C=C(C)C(=O)Nc1ccc(-c2c(-c3ccc4c(c3)COCC4)c3c(N)ncnc3n2C)cc1 [Example 1289] |
| ≤ 100 | C#Cc1nc2ccc(-c3c(-c4ccc(Oc5nccc(C)n5)c(F)c4)c4c(N)ncnc4n3C)cc2n1C [Example 1395] |
| ≤ 100 | C#Cc1ncc(-c2c(-c3ccc(Oc4nccc(C)n4)c(F)c3)c3c(N)ncnc3n2C)c(C)c1F [Example 1313] |
| 1000 to 100000 | C#Cc1cc(C)c(-c2c(C3=CC[C@@]4(CC3)Cc3ccc(C)nc3O4)c3c(C)ncnc3n2C)cn1 [Example 1392] |
| ≤ 100 | C#Cc1ncc(-c2c(C3=CC[C@H](C(=O)N4CCCC4)CC3)c3c(N)ncnc3n2C)c(C)c1F (single isomer, unassigned) [Example 1330] |
| 250 to 1000 | C#Cc1nc2cc(-c3c(C4=CC[C@@H](C(=O)N5CCC[C@H]5COC)CC4)c4c(N)ncnc4n3C)ccc2[nH]1 [Example 1320] |
| ≤ 100 | C#Cc1ccc2cc(-c3c(-c4ccc(Oc5nccc(C)n5)c(F)c4)c4c(N)ncnc4n3C)cnc2n1 [Example 1429] |
| ≤ 100 | C#Cc1ncc(-c2c(-c3ccc(Oc4nccc(C)n4)c(F)c3)c3c(N)ncnc3n2C)c(OC)c1F [Example 1336] |
| ≤ 100 | C=C(C)C(=O)Nc1ccc(-c2c(-c3cnc(-c4ccc(OC)cc4)s3)c3c(N)ncnc3n2C)cc1 [Example 1419] |
| 250 to 1000 | C=C1CCc2cc(-c3c(-c4ccc(Oc5nccc(C)n5)cc4)c4c(N)ncnc4n3C)ccc2C1=O [Example 1311] |

Second part, the compound before the results:

| Structure (SMILES) | IC50 [nM] |
| --- | --- |
| Cc1ccnc(Oc2ccc(-c3c([C@@H]4CCN(C(=O)CCl)C4)n(C)c4ncnc(N)c34)cc2)n1 (single isomer, unassigned) [Example 875] | 250 to 1000 |
| C=C(C)C(=O)N1CC(c2c(-c3ccc(C(=O)N4CCCC4)cc3)c3c(N)ncnc3n2C)=C[C@@H]1C [Example 903] | 1000 to 100000 |
| COC(=O)Nc1ccc(-c2c(-c3ccc(C(=O)N4CCCC4)cc3)c3c(N)ncnc3n2C)cc1 [Example 902] | 1000 to 100000 |
| C=C(C)C(=O)Nc1ccc(-c2c(C3=CC[C@@H](C(=O)N4CCC[C@@H]4C4CC4)CC3)c3c(N)ncnc3n2C)cc1 [Example 1055] | ≤ 100 |
| C=C(C)C(=O)Nc1ccc(-c2cn3ncnc(N)c3c2-c2ccc(S(=O)(=O)NC3CCC3)cc2)cc1 [Example 834] | 250 to 1000 |
| C=CC(=O)N1CCC(n2cc(-c3c(-c4ccc(C(=O)NC5CCOC5)cc4)c4c(N)ncnc4n3C)cn2)CC1 (centres unmarked) [Example 845] | 250 to 1000 |
| C#Cc1cc(C)c(-c2c(-c3ccc(C(=O)N4CCC[C@H]4C#C)cc3)c3c(N)ncnc3n2C)cn1 [Example 1185] | ≤ 100 |
| C#Cc1ncc(-c2c(C3=CC[C@@H](C(=O)N4CCCC4)CC3)c3c(N)ncnc3n2C)c(C)n1 [Example 1180] | ≤ 100 |
| C=CC(=O)Nc1ccc(-c2c(-c3ccc(Oc4nccc(C)n4)cc3)c3c(N)ncnc3n2C)c(C)c1 [Example 1092] | ≤ 100 |
| C#Cc1ncc(-c2c(-c3ccc(Oc4nccc(C)n4)cc3)c3c(N)ncnc3n2C)cc1F [Example 1081] | 250 to 1000 |
| C=C(C)C(=O)Nc1ccc(-c2c(C3=CC[C@@H](C(=O)NC4CCCC4)CC3)c3c(N)ncnc3n2C)cc1 (single isomer, unassigned) [Example 958] | ≤ 100 |
| Cc1cccc(Oc2ccc(-c3c(-c4cccc(NC#N)c4)n(C)c4ncnc(N)c34)cc2)n1 [Example 1121] | ≤ 100 |
| C#Cc1cc(C)c(-c2c(C3=CC[C@@H](C(=O)N4CCC[C@H]4COC)CC3)c3c(N)ncnc3n2C)cn1 (single isomer, unassigned) [Example 1212] | 100 to 250 |
| C=C(C)C(=O)Nc1ccc(-c2c(C3=C(F)C[C@H](C(=O)N4CCCC4)CC3)c3c(N)ncnc3n2C)cc1 [Example 882] | 1000 to 100000 |
| C#Cc1ccc(-c2c(-c3ccc(Oc4nccc(C)n4)cc3)c3c(N)ncnc3n2C)cn1 [Example 1067] | ≤ 100 |
| C=C(C)C(=O)Nc1ccc(-c2c(-c3ccc(C(=O)NCC4CCC4)c(OC)c3)c3c(N)ncnc3n2C)cc1 [Example 1046] | 1000 to 100000 |

Same assay, conditions: SNU-16 cells

| IC50 [nM] | Structure (SMILES) |
| --- | --- |
| 100 to 250 | C=C(C)C(=O)Nc1ccc(-c2c(-c3ccc(C(=O)N4CCCC4)cc3)c3c(N)n[nH]c(=O)c3n2C)cc1 [Example 870] |
| 250 to 1000 | C#Cc1cc(C)c(-c2c(C3=CC[C@@H](C(=O)N4CCC[C@H]4C#N)CC3)c3c(C)ncnc3n2C)c(C)n1 (atropisomer, axis not shown) [Example 1464] |
